The values that follow are results of earlier work, collected in patent US20240000142A1, “AEROSOL […] FOR AQUEOUS CANNABINOID COMPOSITIONS” (OMEGA LIFE SCIENCE LTD., priority 2020, published 2024).

The conditions of the data set: nicotine as a weak base; "as appreciated by the skilled in the art".

With `CN1CCCC1c1cccnc1` (stereo not shown) [nicotine], the pKa result is on record as “about 8”.
